Laboratory results: US8809360B2, “Use of a pyridine compound for the preparation of a medicament for the treatment of skin lesions” (Mitsubishi Tanabe Pharma Corporation, priority 2004, dated 2014)
Values joined by “and” are separate entries in the source; they are usually repeats but may differ in a detail not shown here. Identical values can stand only once.

System: Human Dermal Microvascular Endothelial Cell (HDMEC)
Experiment: Promoting activity in vitro on human dermal microvascular endothelial cell (HDMEC) proliferation
Format: cell-based
Settings: positive control: bFGF solution 0.1 μg/mL medium
Experimental: The wound healing-promoting activity of test compounds were investigated in terms of the promotion activity on HDMEC proliferation in the following manner. As a HDMEC, normal adult dermal microvascular endothelial cells (Hybridoma (1996): Vol. 15 (4), pp 279-288) were used in this study.
A suspension of HDMEC mentioned above (2×10^4 cells/mL; Cryo HMVEC-Ad; trademark registered by Cambrex Inc.) were seeded on 48-well plate (250 μL/well). The cells were cultured in a proliferation medium (BletKit EGM-2-MV; trademark registered by Cambrex Inc.) for one day. After substituting an assay medium (450 μL, bFGF-, EGF- and VEGF-free BletKit EGM-2-MV; trademark registered by Cambrex Inc.) for the proliferation medium, a dimethylsulfoxide solution of the test compound (0.1 v/v %, 50 μL) was added to each well and the cells were cultured for 96 hours. After culturing, the assay medium was removed by aspiration and the residual cells were suspended in Isoton II solution (500 μL; Beckmann-Coulter Ltd.) containing 0.05% trypsin and 0.02% ethylenediaminetetraacetic acid. The suspension was diluted (11-fold) with Isoton II solution (5 mL) and the number of cells were counted by Coulter-Counter Z1 (Beckmann-Coulter Ltd.).
As a negative control group, HDMEC was cultured in the same manner, but in the absence of the test compound, as described above. […]

Positive control: bFGF solution (0.1 μg/mL medium) used instead of the test compound solution; basic fibroblast growth factor
Number of cells after 96 hours: 1.31 × 10^4 cells and 1.81 × 10^4 cells and 2.03 × 10^4 cells | Number of cells after 96 hours (listed as positive control): 1.95 × 10^4 cells
